Source: patent publication US10168342B2, “Lipid probes and uses thereof” (THE SCRIPPS RESEARCH INSTITUTE, priority 2015, dated 2019)
Like-named read-outs stand apart in the source and are kept apart here.

Assays:
[1] = target: T1, AEA-DA lipid probe targets in Neuro2a cells (Mus musculus, UniProt Q8VD00)
T1 sequence (Q8VD00 1-176): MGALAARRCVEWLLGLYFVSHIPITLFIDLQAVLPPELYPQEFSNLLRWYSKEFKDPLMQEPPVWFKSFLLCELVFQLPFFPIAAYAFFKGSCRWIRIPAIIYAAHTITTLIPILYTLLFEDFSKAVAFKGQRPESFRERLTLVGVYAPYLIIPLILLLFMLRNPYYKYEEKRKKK

[2] = target: T2, AEA-DA lipid probe targets in Neuro2a cells (Mus musculus, UniProt Q8R1L4)
T2 sequence (Q8R1L4 1-214): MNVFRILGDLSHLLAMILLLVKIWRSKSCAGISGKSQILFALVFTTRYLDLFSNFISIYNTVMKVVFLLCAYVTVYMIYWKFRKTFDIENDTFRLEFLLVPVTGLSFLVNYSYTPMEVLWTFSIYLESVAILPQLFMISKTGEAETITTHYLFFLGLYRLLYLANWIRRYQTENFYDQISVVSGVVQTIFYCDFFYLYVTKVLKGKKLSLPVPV

[3] = target: T3, AEA-DA lipid probe targets in Neuro2a cells (Mus musculus, UniProt Q924Z4); details: for SILAC ratio, CERS2 (Q924Z4): Neuro2a cells, AEA-DA probe
T3 sequence (Q924Z4 1-380): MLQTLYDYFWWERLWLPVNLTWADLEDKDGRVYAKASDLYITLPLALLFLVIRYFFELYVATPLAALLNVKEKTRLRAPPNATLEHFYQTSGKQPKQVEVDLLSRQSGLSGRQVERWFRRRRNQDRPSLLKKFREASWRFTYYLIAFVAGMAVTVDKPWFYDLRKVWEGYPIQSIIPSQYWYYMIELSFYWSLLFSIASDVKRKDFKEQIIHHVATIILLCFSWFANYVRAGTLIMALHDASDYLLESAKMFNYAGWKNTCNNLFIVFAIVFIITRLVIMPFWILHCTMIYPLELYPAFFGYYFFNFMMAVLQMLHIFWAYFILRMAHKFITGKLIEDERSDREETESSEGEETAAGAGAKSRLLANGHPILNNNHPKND

[4] = target: AEA-DA lipid probe targets in Neuro2a cells (Mus musculus, UniProt Q62351)
[5] = target: AEA-DA lipid probe targets in Neuro2a cells (Mus musculus, UniProt Q9R1P3)
[6] = target: T4, AEA-DA lipid probe targets in Neuro2a cells (Mus musculus, UniProt Q8C7K6)
T4 sequence (Q8C7K6 23-495): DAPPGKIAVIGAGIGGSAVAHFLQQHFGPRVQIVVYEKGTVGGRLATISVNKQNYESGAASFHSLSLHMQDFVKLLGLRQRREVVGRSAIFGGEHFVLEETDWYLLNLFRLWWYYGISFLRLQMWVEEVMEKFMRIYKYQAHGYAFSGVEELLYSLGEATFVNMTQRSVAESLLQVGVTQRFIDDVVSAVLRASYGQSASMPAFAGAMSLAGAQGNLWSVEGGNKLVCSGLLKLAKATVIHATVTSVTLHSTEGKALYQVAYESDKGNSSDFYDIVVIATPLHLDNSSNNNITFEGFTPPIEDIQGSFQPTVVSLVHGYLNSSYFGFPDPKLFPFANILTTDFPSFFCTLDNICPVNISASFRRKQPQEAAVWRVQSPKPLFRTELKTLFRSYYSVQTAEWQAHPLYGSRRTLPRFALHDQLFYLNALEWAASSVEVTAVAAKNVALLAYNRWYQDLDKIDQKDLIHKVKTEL

[7] = target: T5, AEA-DA lipid probe targets in Neuro2a cells (Mus musculus, UniProt Q8BMK4)
T5 sequence (Q8BMK4 1-575): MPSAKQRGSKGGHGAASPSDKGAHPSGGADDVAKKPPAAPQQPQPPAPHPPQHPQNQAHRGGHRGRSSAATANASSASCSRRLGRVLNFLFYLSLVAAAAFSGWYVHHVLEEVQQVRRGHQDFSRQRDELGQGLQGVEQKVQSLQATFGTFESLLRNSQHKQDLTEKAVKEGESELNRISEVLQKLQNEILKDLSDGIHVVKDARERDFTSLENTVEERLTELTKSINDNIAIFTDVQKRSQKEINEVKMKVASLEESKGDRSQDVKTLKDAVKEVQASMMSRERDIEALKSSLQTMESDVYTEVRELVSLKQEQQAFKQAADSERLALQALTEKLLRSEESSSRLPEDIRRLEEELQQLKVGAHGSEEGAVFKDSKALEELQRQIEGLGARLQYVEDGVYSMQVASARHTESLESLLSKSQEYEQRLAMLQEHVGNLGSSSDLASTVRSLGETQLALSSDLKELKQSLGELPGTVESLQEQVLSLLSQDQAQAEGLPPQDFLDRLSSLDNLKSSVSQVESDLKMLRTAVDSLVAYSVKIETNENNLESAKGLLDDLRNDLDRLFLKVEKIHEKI

[8] = target: T6, AEA-DA lipid probe targets in Neuro2a cells (Mus musculus, UniProt O89023)
T6 sequence (O89023 195-562): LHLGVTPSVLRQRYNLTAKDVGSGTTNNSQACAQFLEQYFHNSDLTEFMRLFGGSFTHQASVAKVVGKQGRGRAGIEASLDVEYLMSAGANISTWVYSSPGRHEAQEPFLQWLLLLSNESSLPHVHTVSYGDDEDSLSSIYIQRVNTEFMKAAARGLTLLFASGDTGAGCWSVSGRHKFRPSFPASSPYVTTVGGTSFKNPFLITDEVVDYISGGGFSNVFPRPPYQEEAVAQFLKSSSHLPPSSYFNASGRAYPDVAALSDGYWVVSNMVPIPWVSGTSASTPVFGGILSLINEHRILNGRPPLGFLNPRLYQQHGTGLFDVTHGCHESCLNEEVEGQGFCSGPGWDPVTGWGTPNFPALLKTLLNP

[9] = target: AEA-DA lipid probe targets in Neuro2a cells (Mus musculus, UniProt P47867)
[10] = target: AEA-DA lipid probe targets in Neuro2a cells (Mus musculus, UniProt P97300); details: competitor 25 μM; for SILAC ratio, NPTN (Q9Y639): Neuro2a cells, AEA-DA probe
Chain of AEA-DA lipid probe targets in Neuro2a cells (Mus musculus, UniProt P97300) (P97300 29-397): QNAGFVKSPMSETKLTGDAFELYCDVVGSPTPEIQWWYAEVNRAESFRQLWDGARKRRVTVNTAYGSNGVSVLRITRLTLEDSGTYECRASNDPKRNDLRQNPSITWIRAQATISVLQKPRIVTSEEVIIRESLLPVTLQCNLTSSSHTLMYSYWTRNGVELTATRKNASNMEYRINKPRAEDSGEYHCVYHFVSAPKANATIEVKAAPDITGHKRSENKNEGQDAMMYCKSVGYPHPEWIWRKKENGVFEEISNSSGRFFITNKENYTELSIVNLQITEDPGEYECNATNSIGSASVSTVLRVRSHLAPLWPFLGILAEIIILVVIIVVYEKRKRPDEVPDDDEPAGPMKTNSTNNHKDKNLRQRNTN

Chain of AEA-DA lipid probe targets in Neuro2a cells (Mus musculus, UniProt Q9R1P3) (Q9R1P3 whole entry): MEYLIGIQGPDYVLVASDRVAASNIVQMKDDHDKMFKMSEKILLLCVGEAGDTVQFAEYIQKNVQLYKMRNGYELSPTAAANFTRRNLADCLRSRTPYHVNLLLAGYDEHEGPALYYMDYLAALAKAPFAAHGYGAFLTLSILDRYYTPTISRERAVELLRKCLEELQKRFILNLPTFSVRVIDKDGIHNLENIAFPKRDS
Chain of AEA-DA lipid probe targets in Neuro2a cells (Mus musculus, UniProt Q62351) (Q62351 whole entry): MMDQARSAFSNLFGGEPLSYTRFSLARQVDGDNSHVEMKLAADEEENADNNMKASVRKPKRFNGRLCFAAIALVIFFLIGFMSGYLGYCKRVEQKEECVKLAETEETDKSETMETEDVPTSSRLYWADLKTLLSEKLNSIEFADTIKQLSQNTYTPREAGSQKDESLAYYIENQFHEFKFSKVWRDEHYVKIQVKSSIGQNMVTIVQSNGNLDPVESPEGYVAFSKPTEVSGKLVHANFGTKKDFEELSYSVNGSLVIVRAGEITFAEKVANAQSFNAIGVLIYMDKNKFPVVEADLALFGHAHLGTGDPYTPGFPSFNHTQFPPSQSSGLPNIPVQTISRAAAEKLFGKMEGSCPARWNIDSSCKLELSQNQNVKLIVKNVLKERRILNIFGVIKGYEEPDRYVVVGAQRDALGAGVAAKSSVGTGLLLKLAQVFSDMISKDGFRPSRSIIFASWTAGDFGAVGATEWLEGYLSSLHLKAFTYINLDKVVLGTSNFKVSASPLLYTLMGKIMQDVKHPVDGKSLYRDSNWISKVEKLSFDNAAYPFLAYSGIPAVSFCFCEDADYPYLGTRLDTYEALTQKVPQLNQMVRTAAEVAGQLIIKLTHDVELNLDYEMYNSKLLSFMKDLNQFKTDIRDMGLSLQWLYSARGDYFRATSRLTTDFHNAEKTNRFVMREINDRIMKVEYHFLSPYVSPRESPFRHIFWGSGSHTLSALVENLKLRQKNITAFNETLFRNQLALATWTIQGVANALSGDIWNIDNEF
Chain of AEA-DA lipid probe targets in Neuro2a cells (Mus musculus, UniProt P47867) (P47867 23-471): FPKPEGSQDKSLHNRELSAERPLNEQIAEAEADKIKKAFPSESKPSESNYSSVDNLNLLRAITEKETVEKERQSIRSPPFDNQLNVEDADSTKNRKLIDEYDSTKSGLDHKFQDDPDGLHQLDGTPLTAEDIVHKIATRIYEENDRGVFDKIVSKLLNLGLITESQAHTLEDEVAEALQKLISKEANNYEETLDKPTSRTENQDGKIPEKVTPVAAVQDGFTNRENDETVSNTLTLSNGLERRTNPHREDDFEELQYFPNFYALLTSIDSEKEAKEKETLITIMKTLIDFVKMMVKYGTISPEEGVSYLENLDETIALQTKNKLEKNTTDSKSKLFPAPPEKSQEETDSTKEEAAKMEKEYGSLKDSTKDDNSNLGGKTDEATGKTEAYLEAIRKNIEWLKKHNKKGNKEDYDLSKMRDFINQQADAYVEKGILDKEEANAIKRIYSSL

CCCCC/C=C\C/C=C\C/C=C\C/C=C\CCCC(=O)NCCO [AEA, anandamide, reference compound]
SILAC ratio, Tmem97 ([1]; competitor 200 μM): 1.8
SILAC ratio, Kdelr3 ([2]; competitor 200 μM): 1.2
SILAC ratio, CERS2 (Q924Z4) ([3]; competitor 200 μM): 2.4
SILAC ratio, Cers2 ([3]; competitor 200 μM): 2.4
SILAC ratio Tfrc ([4]; competitor 200 μM): 1.0
SILAC ratio Psmb2 ([5]; competitor 200 μM): 1.3
SILAC ratio Pcyox11 ([6]; competitor 200 μM): 1.5
SILAC ratio, Ckap4 ([7]; competitor 200 μM): 2.0
SILAC ratio Tpp1 ([8]; competitor 200 μM): 1.5
SILAC ratio, Scg3 ([9]; competitor 200 μM): 1.2

O=C(/C=C/c1cccnc1)NCCCCC1CCN(C(=O)c2ccccc2)CC1 [FK-866, reference compound]
SILAC ratio, Tmem97 ([1]; competitor 25 μM): 1.0
SILAC ratio, Kdelr3 ([2]; competitor 25 μM): 1.1
SILAC ratio, CERS2 (Q924Z4) ([3]; competitor 25 μM): 1.2
SILAC ratio, Cers2 ([3]; competitor 25 μM): 1.2
SILAC ratio Tfrc ([4]; competitor 25 μM): 1.1
SILAC ratio Psmb2 ([5]; competitor 25 μM): 1.7
SILAC ratio Pcyox11 ([6]; competitor 25 μM): 1.3
SILAC ratio, Ckap4 ([7]; competitor 25 μM): 1.1
SILAC ratio Tpp1 ([8]; competitor 25 μM): 1.0
SILAC ratio, Scg3 ([9]; competitor 25 μM): 1.0
SILAC ratio, NPTN (Q9Y639) [10]: 1.2
SILAC ratio, Nptn [10]: 1.2

CN1CCN(C(=O)c2c(-c3ccccc3)c3cc([N+](=O)[O-])ccc3n2C)CC1 [KML110, (1-Methyl-5-nitro-3-phenyl-1H-indol-2-yl)(4-methylpiperazin-1-yl)methanone]
SILAC ratio, Tmem97 ([1]; competitor 25 μM): 1.6
SILAC ratio, Kdelr3 ([2]; competitor 25 μM): 1.2
SILAC ratio, Cers2 ([3]; competitor 25 μM): 2.2
SILAC ratio Tfrc ([4]; competitor 25 μM): 1.1
SILAC ratio Psmb2 ([5]; competitor 25 μM): 1.7
SILAC ratio Pcyox11 ([6]; competitor 25 μM): 2.0
SILAC ratio, Ckap4 ([7]; competitor 25 μM): 1.4
SILAC ratio Tpp1 ([8]; competitor 25 μM): 1.5
SILAC ratio, Scg3 ([9]; competitor 25 μM): 1.0

CN1CCN(C(=O)c2[nH]c3ccc([N+](=O)[O-])cc3c2-c2ccccc2)CC1 [MJN228, (4-Methylpiperazin-1-yl)(5-nitro-3-phenyl-1H-indol-2-yl)methanone]
SILAC ratio, Tmem97 ([1]; competitor 10 μM): 1.4
SILAC ratio, Tmem97 ([1]; competitor 25 μM): 1.7
SILAC ratio, Tmem97 ([1]; competitor 50 μM): 2.1
SILAC ratio, Tmem97 ([1]; competitor 100 μM): 3.2
SILAC ratio, Kdelr3 ([2]; competitor 10 μM): 1.2
SILAC ratio, Kdelr3 ([2]; competitor 25 μM): 1.3
SILAC ratio, Kdelr3 ([2]; competitor 50 μM): 1.3
SILAC ratio, Kdelr3 ([2]; competitor 100 μM): 1.6
SILAC ratio, CERS2 (Q924Z4) ([3]; competitor 25 μM): 3.1
SILAC ratio, Cers2 ([3]; competitor 10 μM): 2.0
SILAC ratio, Cers2 ([3]; competitor 25 μM): 3.1
SILAC ratio, Cers2 ([3]; competitor 50 μM): 5.2
SILAC ratio, Cers2 ([3]; competitor 100 μM): 6.8
SILAC ratio Tfrc ([4]; competitor 10 μM): 1.1
SILAC ratio Tfrc ([4]; competitor 25 μM): 1.0
SILAC ratio Tfrc ([4]; competitor 50 μM): 1.0
SILAC ratio Tfrc ([4]; competitor 100 μM): 1.0
SILAC ratio Psmb2 ([5]; competitor 10 μM): 1.3
SILAC ratio Psmb2 ([5]; competitor 25 μM): 1.4
SILAC ratio Psmb2 ([5]; competitor 50 μM): 1.2
SILAC ratio Psmb2 ([5]; competitor 100 μM): 2.2
SILAC ratio Pcyox11 ([6]; competitor 10 μM): 1.2
SILAC ratio Pcyox11 ([6]; competitor 25 μM): 1.8
SILAC ratio Pcyox11 ([6]; competitor 50 μM): 1.7
SILAC ratio Pcyox11 ([6]; competitor 100 μM): 2.5
SILAC ratio, Ckap4 ([7]; competitor 10 μM): 1.3
SILAC ratio, Ckap4 ([7]; competitor 25 μM): 1.4
SILAC ratio, Ckap4 ([7]; competitor 50 μM): 1.3
SILAC ratio, Ckap4 ([7]; competitor 100 μM): 1.8
SILAC ratio Tpp1 ([8]; competitor 10 μM): 1.4
SILAC ratio Tpp1 ([8]; competitor 25 μM): 1.4
SILAC ratio Tpp1 ([8]; competitor 50 μM): 1.8
SILAC ratio Tpp1 ([8]; competitor 100 μM): 2.0
SILAC ratio, Scg3 ([9]; competitor 10 μM): 1.0
SILAC ratio, Scg3 ([9]; competitor 25 μM): 1.3
SILAC ratio, Scg3 ([9]; competitor 50 μM): 1.0
SILAC ratio, Scg3 ([9]; competitor 100 μM): 0.8
SILAC ratio, NPTN (Q9Y639) [10]: 1.9
SILAC ratio, Nptn [10]: 1.9

C=CCN(C)CCCCCCOc1ccc(C(=O)c2ccc(Br)cc2)c(F)c1 [Ro 48-8071, reference compound]
SILAC ratio, Tmem97 ([1]; competitor 25 μM): 10.0
SILAC ratio, Kdelr3 ([2]; competitor 25 μM): 0.9
SILAC ratio, CERS2 (Q924Z4) ([3]; competitor 25 μM): 1.6
SILAC ratio, Cers2 ([3]; competitor 25 μM): 1.6
SILAC ratio Tfrc ([4]; competitor 25 μM): 0.8
SILAC ratio Psmb2 ([5]; competitor 25 μM): 1.0
SILAC ratio Pcyox11 ([6]; competitor 25 μM): 1.0
SILAC ratio, Ckap4 ([7]; competitor 25 μM): 1.1
SILAC ratio Tpp1 ([8]; competitor 25 μM): 0.8
SILAC ratio, Scg3 ([9]; competitor 25 μM): 0.9
SILAC ratio, NPTN (Q9Y639) [10]: 2.0
SILAC ratio, Nptn [10]: 2.0
